The subject of data set [1] is rabbit eye (anterior chamber paracentesis). The data set is described as follows: Rabbit paracentesis model, overall anti-inflammatory activity. The following applies: 0.1%, 0.5% and 1% topical formulations; preliminary conclusions; listed as BOL-303242-X. In kind it is in vivo. The text has this:
Inflammatory processes are multidimensional in origin, and are characterized by complex cellular and molecular events involving numerous components all of which have not been identified. Prostaglandins are among these mediators and play an important role in certain forms of ocular inflammation. Paracentesis of the anterior chamber in the rabbit eye induces inflammatory reaction due to the disruption of the blood-aqueous barrier (“BAB”), which is mediated, at least in part, by prostaglandin E2 [References 1-3 below]. Intraocular or topical administration of PGE2 disrupts the BAB. [Reference 4, below] The treatment schedule adopted in this study was similar to the clinical NSAIDs (Ocufen) treatment schedule used by surgeons for patients before cataract surgery.
Each rabbit was placed in a restraint device and tagged with the alphanumeric code. The formulations were instilled (50 μl) into the conjunctival sac of both eyes 180, 120, 90 and 30 min before the first paracentesis; then 15, 30, 90 min after the first paracentesis. To perform the first paracentesis the animals were anaesthetized by intraveneous injection of 5 mg/kg Zoletil® (Virbac; 2.5 mg/kg tiletamine HCl and 2.5 mg/kg zolazepam HCl) and one drop of local anesthetic (Novesina®, Novartis) was administered to the eye. […]

A short description of data set [2]: Side effects of corticosteroids (very preliminary data, not shown).
Data set [3] relates to leukocytes (PMN) in aqueous humor. The data set is described as follows: Leukocytes (PMN) measurement in aqueous humor, rabbit paracentesis model. The following applies: aqueous humor at the second paracentesis; for PMN (number/μl): raw data per sample; for PMN numbers, Mean (number/μl): group mean. The class given is in vivo. Here is the method:
Each rabbit was placed in a restraint device and tagged with the alphanumeric code. The formulations were instilled (50 μl) into the conjunctival sac of both eyes 180, 120, 90 and 30 min before the first paracentesis; then 15, 30, 90 min after the first paracentesis. To perform the first paracentesis the animals were anaesthetized by intraveneous injection of 5 mg/kg Zoletil® (Virbac; 2.5 mg/kg tiletamine HCl and 2.5 mg/kg zolazepam HCl) and one drop of local anesthetic (Novesina®, Novartis) was administered to the eye. Anterior chamber paracentesis was performed with a 26 G needle attached to a tuberculin syringe; the needle was introduced into the anterior chamber through the cornea, taking care not to damage the tissues. Two hours after the first paracentesis, the animals were sacrificed with 0.4 ml Tanax® (Intervet International B.V.) and the second paracentesis was performed. About 100 μl of aqueous humor were removed at the second paracentesis. Aqueous humor was immediately split in four aliquots and stored at −80° C. until analysis. Then both eyes were enucleated and the iris-ciliary body was carefully excised, placed in polypropylene tubes, and stored at −80° C. until analysis.
For the determination of the number of leukocytes we used a haemocytometer (Improved Neubauer Chamber; Brigth-line, Hausser Scientific) and a Polyvar 2 microscope (Reichert-Jung).

Where “and” joins values, the source holds several entries; their conditions need not be identical. Equal values may be shown once. Entries after “also recorded” stand apart in the source; their conditions may differ.

`Cc1ccc2c(NCC(O)(CC(C)(C)c3cc(F)cc4c3OCC4)C(F)(F)F)cccc2n1` (stereo not drawn) [BOL]: in data set [1], the “Anti-inflammatory activity in the rabbit paracentesis model (conclusion)” value is given as “active; also recorded: as effective an anti-inflammatory drug as some of the commonly accepted prior-art steroids or NSAID”. Also, the “Side effects of corticosteroids” value in data set [2] was “does not have some of the side effects of corticosteroids”. Besides, in data set [3] (1% topical formulation), the “PMN (number/μl)” value is 30 number/μl and 20 number/μl and 40 number/μl.

`C[C@@H]1C[C@H]2[C@@H]3CCC4=CC(=O)C=C[C@]4(C)[C@@]3(F)[C@@H](O)C[C@]2(C)[C@@]1(O)C(=O)CO` [Dex, dexamethasone]: the “PMN numbers, Mean (number/μl)” value in data set [3] (0.1% topical formulation) was found to be 30.000 number/μl.

For `CC(C(=O)O)c1ccc(-c2ccccc2)c(F)c1` (stereo not drawn) [F, flurbiprofen], the “PMN numbers, Mean (number/μl)” value in data set [3] (0.03% topical formulation) worked out at 30.000 number/μl.

In the case of `CCOC(=O)O[C@]1(C(=O)OCCl)CC[C@H]2[C@@H]3CCC4=CC(=O)C=C[C@]4(C)[C@H]3[C@@H](O)C[C@@]21C` [LE, loteprednol etabonate], the “PMN (number/μl)” value in data set [3] (0.5% topical formulation) is 40 number/μl and 20 number/μl and 30 number/μl.

Values taken from US20080031884A1, “COMPOSITIONS AND METHODS FOR TREATING, REDUCING, AMELIORATING, OR ALLEVIATING POSTERIOR-SEGMENT OPHTHALMIC DISEASES” (priority 2006, published 2008).
